Source: article PMC12210654, “Palazestrant, a novel oral Complete Estrogen Receptor Antagonist (CERAN) and Selective Estrogen Receptor Degrader (SERD), in patients with ER+/HER2− advanced or metastatic breast cancer: phase 1/2 study results” (Breast Cancer Research : BCR, 2025)
Values joined by “and” are separate entries in the source; they are usually repeats but may differ in a detail not shown here. Equal values may be shown once. “Also recorded” adds a separate entry of the source.

Assay: Safety: adverse events (NCI CTCAE v5.0), electrocardiograms
Type: in vivo, human
Description: Safety assessments included the monitoring of AEs, clinical laboratory parameters, electrocardiograms, and vital signs. AE severity was graded according to the National Cancer Institute Common Terminology Criteria for Adverse Events (version 5.0).
All DLT analyses (phase 1a) were performed in patients enrolled in the study during cycle 1 and who either received 75% of the planned palazestrant doses or experienced a DLT during cycle 1. All PK analyses were performed in patients who received at least 1 dose of palazestrant and had adequate postbaseline PK samples for characterization of PK parameters. All safety analyses were performed and PFS assessed in patients who received at least 1 dose of palazestrant. Clinical response (CR or PR) was assessed in patients who received at least 1 cycle of palazestrant, had measurable disease at baseline, and had at least 1 postbaseline tumor assessment. CBR was assessed in patients who received at least 1 cycle of palazestrant, had at least 1 postbaseline tumor assessment, and started their first dose at least 24 weeks before data cutoff. Patients who discontinued study treatment without radiographic progression within 24 weeks from the first dose were not included in the CBR analysis. PK parameters were estimated using conventional noncompartmental methods. For CBR, estimates were accompanied by 2-sided 95% confidence intervals (95% CIs). For PFS, Kaplan–Meier analyses were used to determine medians, event-free rates, and 95% CIs. For all other outcomes, categorical data were analyzed using frequencies and percentages, and continuous data were analyzed using means (standard deviation) or medians (range), as appropriate.

[1] = any patients treated with palazestrant

Compound: CCCN1CC(Oc2ccc([C@@H]3c4[nH]c5ccccc5c4C[C@@H](C)N3CC(C)(C)F)cc2)C1 [palazestrant, Palazestrant]
- TRAE nausea, any grade (120 mg/day (n = 86)): 54.7%
- TRAE neutropenia, any grade (120 mg/day (n = 86)): 20.9%
- TRAE vomiting, any grade (120 mg/day (n = 86)): 24.4%
- grade 3 TRAE fatigue (120 mg/day (n = 86)): 2.3%
- grade 3 TRAE nausea (120 mg/day (n = 86)): 3.5%
- grade 3 TRAE neutropenia (120 mg/day (n = 86)): 3.5%
- grade 3 TRAE vomiting (120 mg/day (n = 86)): 2.3%
- grade 4 TEAE acute respiratory failure (120 mg/day (n = 86)): 1 patients
- grade 4 TEAE neutropenia (120 mg/day (n = 86)): 6 patients
- grade ≥ 3 TEAE neutropenia (120 mg/day (n = 86)): 10.5%
- patients with 3 grade 4 events (pulmonary embolism, diverticulitis, acute left ventricular failure) (120 mg/day (n = 86)): 1 patient
- patients with Grade 3 TEAEs (120 mg/day (n = 86)): 24.4%
- patients with Grade 3 treatment-related events (120 mg/day (n = 86)): 11.6%
- patients with grade 4 TEAEs (120 mg/day (n = 86)): 9.3%
- patients with ≥ 1 TEAE of any grade (120 mg/day (n = 86)): 95.3%
- Treatment-related grade 4 neutropenia (120 mg/day (n = 86), 5 patients): 5.8% and 6%
- time of grade 4 neutropenia events after initiation of palazestrant (120 mg/day, approximately): 6-8 weeks
- treatment discontinuation due to AEs (60 or 120 mg/day (n = 116)): 6.0%
- severity of most TEAEs (RP2D of 120 mg/day): grade 1–2; also recorded: grade 1 or 2
- severity of the majority of TRAEs (RP2D of 120 mg/day): grade 1 or 2
- TEAE bradycardia (RP2D, 120 mg/day): 9%
- TEAE photopsia (RP2D, 120 mg/day): 5%
- grade of all bradycardia and photopsia events (RP2D, 120 mg/day): grade 1
- treatment-related diarrhea of any grade (RP2D, 120 mg/day): 13%
- treatment-related diarrhea, grade ≥ 3 (RP2D, 120 mg/day): no grade ≥ 3 events
- severity of the majority of TEAEs (all dose-escalation cohorts (30 to 300 mg)): grade 1 or 2
- QTcF values [1]: ≤ 500 ms
- changes in QTcF [1]: no clinically significant changes
- discontinuations due to AEs assessed as related to palazestrant (of seven patients who discontinued due to AEs): 5 patients
- neutropenia resolved upon treatment discontinuation (of the 5 patients with treatment-related grade 4 neutropenia, 120 mg/day): 2 patients
- grade 4 neutropenia resolved following discontinuation of palazestrant (of the 6 patients with grade 4 neutropenia): 3 patients
- TEAE Constipation, Toxicity Grade All (phase 1a, 30 mg (N=5)): 1 (20.0)
- TEAE Constipation, Toxicity Grade G3 (phase 1a, 30 mg (N=5)): 0
- TEAE Constipation, Toxicity Grade G4 (phase 1a, 30 mg (N=5)): 0
- TEAE Decreased appetite, Toxicity Grade All (phase 1a, 30 mg (N=5)): 1 (20.0)
- TEAE Decreased appetite, Toxicity Grade G3 (phase 1a, 30 mg (N=5)): 0
- TEAE Decreased appetite, Toxicity Grade G4 (phase 1a, 30 mg (N=5)): 0
- TEAE Diarrhea, Toxicity Grade All (phase 1a, 30 mg (N=5)): 2 (40.0)
- TEAE Diarrhea, Toxicity Grade G3 (phase 1a, 30 mg (N=5)): 0
- TEAE Diarrhea, Toxicity Grade G4 (phase 1a, 30 mg (N=5)): 0
- TEAE Fatigue, Toxicity Grade All (phase 1a, 30 mg (N=5)): 2 (40.0)
- TEAE Fatigue, Toxicity Grade G3 (phase 1a, 30 mg (N=5)): 0
- TEAE Fatigue, Toxicity Grade G4 (phase 1a, 30 mg (N=5)): 0
- TEAE Headache, Toxicity Grade All (phase 1a, 30 mg (N=5)): 1 (20.0)
- TEAE Headache, Toxicity Grade G3 (phase 1a, 30 mg (N=5)): 0
- TEAE Headache, Toxicity Grade G4 (phase 1a, 30 mg (N=5)): 0
- TEAE Maculopapular rash, Toxicity Grade All (phase 1a, 30 mg (N=5)): 1 (20.0)
- TEAE Maculopapular rash, Toxicity Grade G3 (phase 1a, 30 mg (N=5)): 0
- TEAE Maculopapular rash, Toxicity Grade G4 (phase 1a, 30 mg (N=5)): 0
- TEAE Nausea, Toxicity Grade All (phase 1a, 30 mg (N=5)): 2 (40.0)
- TEAE Nausea, Toxicity Grade G3 (phase 1a, 30 mg (N=5)): 0
- TEAE Nausea, Toxicity Grade G4 (phase 1a, 30 mg (N=5)): 0
- TEAE Neutropenia, Toxicity Grade G3 (phase 1a, 30 mg (N=5)): 0
- TEAE Neutropenia, Toxicity Grade G4 (phase 1a, 30 mg (N=5)): 1 (20.0)
- TEAE Vomiting, Toxicity Grade All (phase 1a, 30 mg (N=5)): 1 (20.0)
- TEAE Vomiting, Toxicity Grade G3 (phase 1a, 30 mg (N=5)): 0
- TEAE Vomiting, Toxicity Grade G4 (phase 1a, 30 mg (N=5)): 0
- TEAE Neutropenia, Toxicity Grade All (phase 1a, 30 mg (N=5), includes neutropenia and neutrophil count decreased): 1 (20.0)
- TEAE Constipation, Toxicity Grade All (phase 1a, 60 mg (N=6)): 1 (16.7)
- TEAE Constipation, Toxicity Grade G3 (phase 1a, 60 mg (N=6)): 0
- TEAE Constipation, Toxicity Grade G4 (phase 1a, 60 mg (N=6)): 0
- TEAE Decreased appetite, Toxicity Grade All (phase 1a, 60 mg (N=6)): 0
- TEAE Decreased appetite, Toxicity Grade G3 (phase 1a, 60 mg (N=6)): 0
- TEAE Decreased appetite, Toxicity Grade G4 (phase 1a, 60 mg (N=6)): 0
- TEAE Diarrhea, Toxicity Grade All (phase 1a, 60 mg (N=6)): 2 (33.3)
- TEAE Diarrhea, Toxicity Grade G3 (phase 1a, 60 mg (N=6)): 0
- TEAE Diarrhea, Toxicity Grade G4 (phase 1a, 60 mg (N=6)): 0
- TEAE Fatigue, Toxicity Grade All (phase 1a, 60 mg (N=6)): 3 (50.0)
- TEAE Fatigue, Toxicity Grade G3 (phase 1a, 60 mg (N=6)): 0
- TEAE Fatigue, Toxicity Grade G4 (phase 1a, 60 mg (N=6)): 0
- TEAE Headache, Toxicity Grade All (phase 1a, 60 mg (N=6)): 1 (16.7)
- TEAE Headache, Toxicity Grade G3 (phase 1a, 60 mg (N=6)): 0
- TEAE Headache, Toxicity Grade G4 (phase 1a, 60 mg (N=6)): 0
- TEAE Maculopapular rash, Toxicity Grade All (phase 1a, 60 mg (N=6)): 1 (16.7)
- TEAE Maculopapular rash, Toxicity Grade G3 (phase 1a, 60 mg (N=6)): 0
- TEAE Maculopapular rash, Toxicity Grade G4 (phase 1a, 60 mg (N=6)): 0
- TEAE Nausea, Toxicity Grade All (phase 1a, 60 mg (N=6)): 2 (33.3)
- TEAE Nausea, Toxicity Grade G3 (phase 1a, 60 mg (N=6)): 0
- TEAE Nausea, Toxicity Grade G4 (phase 1a, 60 mg (N=6)): 0
- TEAE Neutropenia, Toxicity Grade G3 (phase 1a, 60 mg (N=6)): 0
- TEAE Neutropenia, Toxicity Grade G4 (phase 1a, 60 mg (N=6)): 0
- TEAE Vomiting, Toxicity Grade All (phase 1a, 60 mg (N=6)): 1 (16.7)
